The text below walks through data of patent US20090176714A1, “METHOD OF REDUCING THE EFFECTS OF ABeta AND COMPOSITIONS THEREFORE” (priority 2004, published 2009).

The test system of test [1] is tau. In words: Tau phosphorylation in human cortical slices (AT8, phospho-tau(Thr231), electron microscopy). The class given is cell-based. Here is the method: β-amyloid1-42 and reverse Aβ (Aβ42-1) were obtained from BACHEM (Torrance, Calif.). These peptides were dissolved in 0.1% NH3OH at 222 μM. For treatments, Aβ or reverse Aβ was aggregated at 50 μM in Neurobasal media with B-27 supplement and 0.5 mM glutamine at 37° C. for 24 hours. […] Human TTR (Calbiochem) was added to slices together with the Aβ treatment at final concentrations of 0.03, 0.3, and 3 μM TTR. sAPPα was obtained from Sigma (St. Louis, Mo.). Unless otherwise stated, all sAPPα treatments were performed at 1 nM 48 hours prior to the addition of Aβ. The 10 amino acid fragment of the carboxyl-terminal region of sAPPα (592-601 of APP695; SEVKMDAEFR was added according to the same protocol for sAPPα. Because a variable amount of tissue was obtained from each patient, not all treatments were performed on all patients.
Slices were fixed in 4% PFA for 20 minutes, incubated in 30% sucrose in phosphate buffered saline overnight, and frozen in OCT embedding medium. Frozen sections with a width of 10 μm were taken through each slice. Phosphorylated tau was detected with the monoclonal AT8 antibody (1:200; Research Diagnostics, Flanders, N.J.) and anti-phospho-tau(Thr231) (1:500; Calbiochem, San Diego, Calif.). As a control, pre-immune rabbit or mouse IgG (Vector Laboratories, Burlingame, Calif.) was used in place of the primary antibody. A biotinylated anti-rabbit IgG or anti-mouse IgG was used as the secondary antibody. The Vectastain Elite ABC kit (Vector) and tyramide conjugated to either Alexa Fluor 488 or 568 (Molecular Probes, Eugene, Oreg.) were used to visualize the antibody staining. Anti-NeuN (1:250; Chemicon International, Temecula, Calif.) together with an anti-mouse IgG secondary antibody conjugated to Alexa Fluor 647 was used to detect the neuronal marker NeuN. Sections were imaged using either the Bio-Rad Laser Scanning Confocal system or epifluorescence (Zeiss, Thornwood, N.Y.).

Test [2] deals with tau. In words: Tau phosphorylation (AT8, phospho-tau(Thr231) immunohistochemistry, immunoblot, electron microscopy) in hippocampal slices. The class given is cell-based, mouse. The protocol:
Mice were killed with CO2 and immediately perfused through the heart with phosphate buffered saline (PBS). The right hemispheres were fixed in 4% paraformaldehyde (PFA) overnight, sunk in 30% sucrose, and frozen in OCT embedding medium. Hippocampal slices were fixed in 4% PFA for 20 minutes, incubated in 30% sucrose overnight, and frozen in OCT embedding medium. Frozen sections with a width of 10 μm were taken through the hippocampus. Post-mortem human tissue was formalin fixed, cut at 10 μm, and boiled for 10 minutes in a 10 mM Tris buffer, […] for antigen retrieval. IGF-2 and TTR were detected with a 1:200 dilution of the polyclonal antibody against IGF-2 (F-20) or TTR (C-20; Santa Cruz Biotechnology, Santa Cruz, Calif.). Phospho-BAD (Ser112; Cell Signaling, Beverly, Mass.), and BAD (Stressgen, Victoria, British Columbia) were detected with a 1:250 dilution of the respective polyclonal antibody. Phosphorylated tau was detected with the monoclonal AT8 antibody (1:200; Research Diagnostics, Flanders, N.J.) and anti-phospho-tau(Thr231) (1:500; Calbiochem, San Diego, Calif.). As a control pre-immune rabbit or mouse IgG (Vector Laboratories, Burlingame, Calif.) or goat IgG (Santa Cruz) was used in place of the primary antibody. A biotinylated anti-goat IgG, anti-rabbit IgG, or anti-mouse IgG was used as the secondary antibody. Finally, the Vectastain Elite ABC kit (Vector) and tyramide conjugated to either Alexa Fluor 488 or 568 (Molecular Probes, Eugene, Oreg.) were used to visualize the antibody staining. Anti-NeuN (1:250; Chemicon International, Temecula, Calif.) and 4G8 (1:250; Signet, Dedham, Mass.) together with an anti-mouse IgG secondary antibody conjugated to Alexa Fluor 488 were used to detect NeuN and Aβ. The DNA binding dyes ToPro3 (Molecular Probes) or Hoechst 33258 (Sigma, St. Louis, Mo.) were used to visualize nuclei. Sections were imaged using either the Bio-Rad Laser Scanning Confocal system or epifluorescence (Zeiss, Thornwood, N.Y.). Representative figures were obtained from 3 APPSw mice and 3 non-transgenic controls, 3 animals per treatment for hippocampal slices, or from 4 goat IgG and 4 anti-TTR antibody infused mice.
Following treatment with 50 μM Aβ or reverse Aβ for 24 hours, hippocampal slice cultures were fixed with a mixture of 2% PFA/2.5% glutaraldehyde in 0.1 M Sorensons phosphate buffer (pH 7.4) for 1 hour and then post fixed for 1 hour in 2% osmium tetroxide in the same buffer. The slices were then dehydrated in an ethanol series and embedded in Epon epoxy resin. Ultrathin sections were cut on a Reichert-Jung microtome, placed on copper grids, and stained with routine concentrations of uranyl acetate and lead citrate. Micrographs were taken with a Philips CM120 electron microscope. […]
(In general: In western blotting, separated proteins are transferred to a membrane and probed.)

On to β-amyloid1-42 [Aβ], for which, in the test with tau [1] (50 μM Aβ), the AT8 positive cells entry is reported as “several AT8 positive cells” and the “Somatic phospho-tau(Thr231) in NeuN positive neurons” value is on record as “several NeuN positive neurons with high levels of somatic phospho-tau(Thr231)”. Besides, the “Tangle-like structures, electron microscopy” value in the test on tau [1] (50 μM Aβ for 1 week) was “small number of neurons with tangle-like structures”. Also, the “AT8 (phosphorylated tau) staining of neurons in hippocampal neuronal fields” value in the test on tau [2] (25 μM or 50 μM) was “many neurons within the hippocampal neuronal fields were AT8 positive”. The “Phospho-tau(Thr-231) staining of neurons” value in the test on tau [2] (25 μM or 50 μM Aβ) was “several neurons stained positively for phospho-tau(Thr-231)”. The “Levels of phosphorylated tau, immunoblot for phospho-tau(Thr-231)” value in the test with tau [2] (50 μM) is recorded as “increased the levels of phosphorylated tau”. For the same substance, the “Filaments within the cytoplasm of neurons, electron microscopy” value with tau [2] (50 μM Aβ, 24 hours) was “presence of long, straight filaments”.
